Target: JAK1 (recombinant purified GST-tagged catalytic domain) (Homo sapiens (Human), UniProt P23458)
Experiment: biochemical
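Further: biochemical assay with HTRF read-out.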

JAK1 (recombinant purified GST-tagged catalytic domain), sequence (P23458 875-1153): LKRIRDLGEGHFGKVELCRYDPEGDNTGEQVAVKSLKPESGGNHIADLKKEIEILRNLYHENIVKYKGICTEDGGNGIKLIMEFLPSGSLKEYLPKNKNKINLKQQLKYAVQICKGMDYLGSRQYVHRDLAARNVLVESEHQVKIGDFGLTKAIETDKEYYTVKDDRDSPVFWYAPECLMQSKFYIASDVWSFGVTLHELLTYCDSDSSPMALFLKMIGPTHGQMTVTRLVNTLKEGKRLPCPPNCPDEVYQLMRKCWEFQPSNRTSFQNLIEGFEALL

| Structure (SMILES) | IC50 [nM] |
| --- | --- |
| CC(C)(O)C1CC(CN[C@H]2CC[C@@H](n3cc(C(N)=O)c(Nc4ccc(C(F)(F)F)cc4)n3)[C@H](C#N)C2)C1 (single isomer, unassigned) [Example 30-4, 1-[(1R,2R,4S or 1S,2S,4R)-2-cyano-4-({[3-(1-hydroxy-1-methylethyl)cyclo-butyl]methyl}amino)cyclo-hexyl]-3-{[4-(trifluoro-methyl)phenyl]amino}-1H-pyrazole-4-carboxamide] | 1 |
| N#C[C@H]1C[C@H](O)CCC1n1cc(C(N)=O)c(Nc2ccnc(F)c2)n1 (mixture of isomers) [Example 15, 1-[(1S,2S,4R and 1R,2R,4S)-2-Cyano-4-hydroxycyclohexyl]-3-[(2-fluoropyridin-4-yl)amino]-1H-pyrazole-4-carboxamide] | 3 |
| N#C[C@H]1C[C@@H](N2CC(O)C2)CC[C@@H]1n1cc(C(N)=O)c(Nc2ccc(S(=O)(=O)C(F)(F)F)cc2)n1 (single isomer, unassigned) [Example 28-151, 1-[(1S,2S,4S or 1R,2R,4R)-2-cyano-4-(3-hydroxyazetidin-1-yl)cyclohexyl]-3-({4-[(trifluoro-methyl)sulfonyl]phenyl}amino)-1H-pyrazole-4-carboxamide] | 0.13 |
| N#C[C@H]1C[C@@H](NC2CCOCC2)CCC1n1cc(C(N)=O)c(Nc2ccc(Cl)cc2)n1 (single isomer, unassigned) [Example 28-218, 3-[(4-chlorophenyl)amino]-1-[(1S,2S,4S or 1R,2R,4R)-2-cyano-4-(tetrahydro-2H-pyran-4-ylamino)cyclohexyl]-1H-pyrazole-4-carboxamide] | 4 |
| CO/N=C/c1ccc(Nc2nn([C@H]3CCCC[C@@H]3C#N)cc2C(N)=O)cc1 (single isomer, unassigned) [Example 39, 1-[(1S,2S or 1R, 2R)-2-Cyanocyclohexyl]-3-({4-[(methoxyimino)methyl]phenyl}amino)-1H-pyrazole-4-carboxamide] | 0.45 |
| N#C[C@H]1C[C@@H](NCC(F)(F)F)CC[C@@H]1n1cc(C(N)=O)c(Nc2ccnc(F)c2)n1 (single isomer, unassigned) [Example 28-111, 1-{(1S,2S,4S or 1R,2R,4R)-2-cyano-4-[(2,2,2-trifluoroethyl)amino]cyclohexyl}-3-[(2-fluoropyridin-4-yl)amino]-1H-pyrazole-4-carboxamide] | 1 |
| CN[C@H]1CCC(n2cc(C(N)=O)c(Nc3ccc(S(=O)(=O)C(F)(F)F)cc3)n2)[C@@H](C#N)C1 (mixture of isomers) [Example 27-9, 1-[(1S,2S,4S and 1R,2R,4R)-2-cyano-4-(methylamino)cyclohexyl]-3-({4-[(trifluoromethyl)sulfonyl]phenyl}amino)-1H-pyrazole-4-carboxamide] | 3 |
| C[C@H](N[C@@H]1CC[C@H](n2cc(C(N)=O)c(Nc3ccc(OC(F)F)nc3)n2)[C@@H](C#N)C1)C1CC1 (single isomer, unassigned) [Example 28-13, 1-[(1S,2S,4R or 1R,2R,4S)-2-cyano-4-{[(1S)-1-cyclopropylethyl]amino}cyclo-hexyl]-3-{[6-(difluoromethoxy)pyridin-3-yl]amino}-1H-pyrazole-4-carboxamide] | 11 |
| N#C[C@H]1C[C@@H](N2CC(O)(C(F)(F)F)C2)CC[C@@H]1n1cc(C(N)=O)c(Nc2ccc(C(F)(F)F)cc2)n1 (single isomer, unassigned) [Example 28-200, 1-{(1S,2S,4S or 1R,2R,4R)-2-cyano-4-[3-hydroxy-3-(trifluoromethyl)azetidin-1-yl]cyclohexyl}-3-{[4-(trifluoromethyl)phenyl]amino}-nvrazole-4-carboxamide] | 1 |
| N#C[C@H]1CCCC[C@@H]1n1cc(C(N)=O)c(Nc2ccc(C(F)(F)F)cc2)n1 (single isomer, unassigned) [Example 17-105, 1-[(1S,2S or 1R,2R)-2-cyanocyclohexyl]-3-{[4-(trifluoromethyl)phenyl]amino}-1H-pyrazole-4-carboxamide] | 2 |
| N#C[C@H]1C[C@@H](N2CCC2)CC[C@@H]1n1cc(C(N)=O)c(Nc2ccc(OC(F)F)cc2)n1 (single isomer, unassigned) [Example 28-118, 1-[(1S,2S,4S or 1R,2R,4R)-4-azetidin-1-yl-2-cyanocyclohexyl]-3-{[4-(difluoromethoxy)phenyl]amino}-1H-pyrazole-4-carboxamide] | 0.5 |
| COCC(C)(C)N(C)[C@H]1CCC(n2cc(C(N)=O)c(Nc3ccc(Cl)cc3)n2)[C@@H](C#N)C1 (single isomer, unassigned) [Example 28-234, 3-[(4-chlorophenyl)amino]-1-{(1S,2S,4S or 1R,2R,4R)-2-cyano-4-[(2-methoxy-1,1-dimethylethyl)(methyl)ami-no]cyclohexyl}-1H-pyrazole-4-carboxamide] | 2 |
| N#C[C@H]1C[C@H](O)CCC1n1cc(C(N)=O)c(Nc2ccnc(F)c2)n1 (single isomer, unassigned) [Example 25-21, 1-[(1S,2S,4R or 1R,2R,4S)-2-cyano-4-hydroxycyclohexyl]-3-[(2-fluoropyridin-4-yl)amino]-1H-pyrazole-4-carboxamide] | 1 |
| CC(C)(C)OC(=O)[C@H]1CCC(n2cc(C(N)=O)c(Nc3ccc(F)cc3)n2)[C@@H](C#N)C1 (mixture of isomers) [Example 7-1, tert-Butyl (1S,3S,4S and 1R,3R,4R)-4-{4-carbamoyl-3-[(4-fluorophenyl)amino]-1H-pyrazol-1-yl}-3-cyanocyclohexanecarboxylate] | 17 |
| N#C[C@H]1CCCC[C@@H]1n1cc(C(N)=O)c(Nc2ccnc(Cl)c2)n1 (racemic) [Example 17-7, 3-[(2-chloropyridin-4-yl)amino]-1-[(1S,2S and 1R,2R)-2-cyanocyclohexyl]-1H-pyrazole-4-carboxamide] | 4 |
| CC(C)(C)NC(=O)c1cncc(Nc2nn([C@H]3CCCC[C@@H]3C#N)cc2C(N)=O)c1 (single isomer, unassigned) [Example 17-71, N-tert-butyl-5-({4-carbamoyl-1-[(1R,2R or 1S,2S)-2-cyanocyclohexyl]-1H-pyrazol-3-yl}amino)pyridine-3-carboxamide] | 60 |
| CN(C)[C@@H]1CC[C@H](n2cc(C(N)=O)c(Nc3ccc(Cl)cc3)n2)[C@@H](C#N)C1 (single isomer, unassigned) [Example 28-125, 3-[(4-chlorophenyl)amino]-1-[(1S,2S,4R or 1R,2R,4S)-2-cyano-4-(dimethylamino)cyclohexyl]-1H-pyrazole-4-carboxamide] | 2 |
| CC(C)N[C@@H]1CC[C@H](n2cc(C(N)=O)c(Nc3ccc(S(=O)(=O)C(F)(F)F)cc3)n2)[C@@H](C#N)C1 (single isomer, unassigned) [Example 28-175, 1-{(1S,2S,4R or 1R,2R,4S)-2-cyano-4-[(1-methylethyl)amino]cyclohexyl}-3-({4-[(trifluoro-methyl)sulfonyl]phenyl}amino)-1H-pyrazole-4-carboxamide] | 0.35 |

Other lines, results leading:

| IC50 [nM] | Structure (SMILES) |
| --- | --- |
| 3 | N#C[C@H]1C[C@@H](C(=O)N2CC(F)C2)CC[C@@H]1n1cc(C(N)=O)c(Nc2ccc(Cl)cc2)n1 (single isomer, unassigned) [Example 35-34, 3-[(4-chlorophenyl)amino]-1-{(1S,2S,4S or 1R,2R,4R)-2-cyano-4-[(3-fluoroazetidin-1-yl)carbonyl]cyclohexyl}-1H-pyrazole-4-carboxamide] |
| 2 | N#C[C@H]1C[C@@H](O)CC[C@@H]1n1cc(C(N)=O)c(Nc2ccc(Cl)c(F)c2)n1 (single isomer, unassigned) [Example 33-3, 3-[(4-chloro-3-fluorophenyl)amino]-1-[(1S,2S,4S or 1R,2R,4R)-2-cyano-4-hydroxycyclohexyl]-1H-pyrazole-4-carboxamide] |
| 6 | CC(C)NC(=O)O[C@H]1CCC(n2cc(C(N)=O)c(Nc3ccc(F)cc3)n2)[C@@H](C#N)C1 (mixture of isomers) [Example 34-8, (1S,3S,4S and 1R,3R,4R)-4-{4-carbamoyl-3-[(4-fluorophenyl)amino]-1H-pyrazol-1-yl}-3-cyanocyclohexyl propan-2-ylcarbamate] |
| 1 | N#C[C@H]1C[C@](O)(C2CC2)CC[C@@H]1n1cc(C(N)=O)c(Nc2ccc(Cl)cc2)n1 (single isomer, unassigned) [Example 32-12, 3-[(4-chlorophenyl)aminol-1-[(1S,2S,4S or 1R,2R,4R)-2-cyano-4-cyclopropyl-4-hydroxycyclohexyl]-1H-pyrazole-4-carboxamide] |
| 3 | N#C[C@@H]1C[C@H](C(=O)N2CC(F)(F)C2)CC[C@H]1n1cc(C(N)=O)c(Nc2ccc(Cl)cc2)n1 (single isomer, unassigned) [Example 35-15, 3-[(4-chlorophenyl)amino]-1-{(1R,2R,4R or 1S,2S,4S)-2-cyano-4-[(3,3-difluoroazetidin-1-yl)carbonyl]cyclohexyl}-1H-pyrazole-4-carboxamide] |
| 5 | C[C@@]1(O)CC[C@H](n2cc(C(N)=O)c(Nc3ccc(Cl)c(F)c3)n2)[C@@H](C#N)C1 (single isomer, unassigned) [Example 32-7, 3-[(4-chloro-3-fluorophenyl)amino]-1-[(1S,2S,4R or 1R,2R,4S)-2-cyano-4-hydroxy-4-methylcyclohexyl]-1H-pyrazole-4-carboxamide] |
| 38 | CC1(CNC(=O)[C@@H]2CC[C@@H](n3cc(C(N)=O)c(Nc4ccc(Cl)cc4)n3)[C@H](C#N)C2)COC1 (single isomer, unassigned) [Example 35-29, 3-[(4-chlorophenyl)amino]-1-[(1R,2R,4R or 1S,2S,4S)-2-cyano-4-{[(3-methyloxetan-3-yl)methyl]carbamoyl}cyclohexyl]-1H-pyrazole-4-carboxamide] |
| 9 | N#C[C@H]1C[C@@H](C(=O)N[C@H](C2CC2)C(F)(F)F)CC[C@@H]1n1cc(C(N)=O)c(Nc2ccc(Cl)cc2)n1 (single isomer, unassigned) [Example 35-14, 3-[(4-chlorophenyl)amino]-1-[(1S,2S,4S or 1R,2R,4R)-2-cyano-4-{[(1R)-1-cyclopropyl-2,2,2-trifluoroethyl]carbamoyl}cyclohexyl]-1H-pyrazole-4-carboxamide] |
| 2 | N#C[C@@H]1CCCCC1n1cc(C(N)=O)c(Nc2ccc(S(=O)(=O)CC(F)(F)F)cc2)n1 (single isomer, unassigned) [Example 43-7, 1-[(1S,2S or 1R,2R)-2-cyanocyclohexyl]-3-({4-[(2,2,2-trifluoroethyl)sulfonyl]phenyl}amino)-1H-pyrazole-4-carboxamide] |

From patent US8962608B2, “Cycloalkylnitrile pyrazole carboxamides as janus kinase inhibitors” (Merck Sharp & Dohme Corp., priority 2011, dated 2015)
